{
  "source": "patent US20180021270A1",
  "about": "“METHODS FOR THE TREATMENT OF CANCER USING COENZYME Q10 IN COMBINATION WITH IMMUNE CHECKPOINT MODULATORS” (Berg LLC, priority 2016, published 2018)",
  "key": {"[1]": {"tested_on": "T cell surface proteins in buffy coat", "test": "Proteomic analysis of buffy coat samples from cancer patients administered Coenzyme Q10", "type": "in vivo, human", "conditions": "patients with solid tumors, intravenous 4% Coenzyme Q10 nanosuspension; start vs end of treatment", "method": "The ability of Coenzyme Q10 to modulate immune function in cancer patients was investigated by characterizing the molecular signature in buffy coats of patients administered Coenzyme Q10 for the treatment of solid tumors. A sterile Coenzyme Q10 (Ubidecarenone, USP) nanosuspension was administered intravenously to patients with solid tumors. Coenzyme Q10 was evaluated both as a monotherapy and in combination with standard chemotherapeutic agents (e.g. gemcitabine, 5-fluorouracil and docetaxel). The Coenzyme Q10 was provided as a 4% coenzyme Q10 nanosuspension formulation as described in WO 2011/112900, the entire contents of which are expressly incorporated herein by reference.\nThe effect of Coenzyme Q10 treatments on protein expression in immune cells within the buffy coat was evaluated. Furthermore, it was determined whether the proteins identified were known to be on the surface of T cells. To complete this analysis, buffy coat samples were subjected to shot gun global proteomic analysis, and a comprehensive list of proteins were generated for samples obtained from 25 patients being treated for solid tumors with Coenzyme Q10 as described above.\nFor proteomic analysis, data from two publically available T cell proteomic studies were combined. See Graessel A. et al., 2015, Molecular and Cellular Proteomics 14: 2085-2102; and Loyet K. M. et al., 2005, Proteome Research 4: 400, the entire contents of each of which are expressly incorporated herein by reference. Both studies defined the set of proteins on the surface of naïve and activated T cells to generate a working list of proteins potentially found on the T cell surface. This list (>600 proteins) was compared to the total proteome of the buffy coat (>2000 proteins) from twenty-five patients treated with Coenzyme Q10 as monotherapy.\nA total of 62 common proteins shared between T cell surface proteome and the buffy coat proteome were identified. The relative change in protein levels (on the y-axis) represents the slope of the line derived from the linear regression of the level of each protein at the start of Coenzyme Q10 treatment versus the level at the end of Coenzyme Q10 treatment. FIG. 1 provides a schematic of the plot slope of linear regression representing the change in protein expression over time."}, "[2]": {"tested_on": "PD-L1 protein on the surface of breast cancer cells (MDA-MB231)", "test": "Flow cytometry of PD-L1 protein on the cancer cell surface", "type": "cell-based, human", "method": "Flow cytometry analysis with a fluorescent probe for PD-L1 was used to determine the expression of PD-L1 protein on the surface of various human cancer cell lines. The cells were treated with 100 μM Coenzyme Q10, or the IC50 of Coenzyme Q10 for each cell line. […] The increased PD-L1 levels observed in breast cancer cells in response to Coenzyme Q10 treatment were not due to changes in cell populations."}, "human PBMCs (T cells) [3]": {"tested_on": "human PBMCs (T cells)", "test": "Frequency of immune cell populations within PBMCs by flow cytometry", "type": "cell-based", "conditions": "0-800 μM, 24 hours, dose dependent; greater effect in PHA-stimulated than unstimulated cells", "method": "(§1) PBMCs isolated from healthy human donor leukopaks were isolated and cryopreserved. To study the effect of Coenzyme Q10, cells were thawed, rested overnight and treated with or without phytohemagglutinin (PHA). PHA is a lectin protein found in plants which activates T cells by inducing mitosis. Various concentrations of Coenzyme Q10 (0, 12.5, 50, 200, 400 or 800 μM) were added to the cells at the same time. 24 hours to 72 hours post-treatment, frequency and viability of immune cell subpopulations was evaluated, as well as proliferative potential, cytokine secretion, and inhibitory receptor surface expression.\nThe frequency of different immune cell populations within PHA stimulated or unstimulated human PBMCs concurrently treated with Coenzyme Q10 (0, 12.5, 50, 200, 400 or 800 μM) was evaluated by flow cytometry. 24 hours post treatment, PBMCs were analyzed for the surface markers CD3/CD8, CD3/CD4, CD3/CD56, or CD19/CD14. Frequency of immune cell subtypes was quantified by percentage of cells gated for T cells (CD3/CD8/CD4), natural killer T cells (NKT), natural killer (NK) cells, B cells, and monocytes. Cells from 5 healthy donors were tested."}, "human PBMCs (T cells) [4]": {"tested_on": "human PBMCs (T cells)", "test": "Viability of immune cell subpopulations within PBMCs (Annexin V/7 AAD flow cytometry)", "type": "cell-based", "conditions": "0-800 μM Coenzyme Q10, 24 hours, PHA-stimulated or unstimulated PBMCs", "method": "as §1\nThe viability of human immune cell subpopulations within PHA-stimulated or unstimulated PBMCs concurrently treated with Coenzyme Q10 was also determined. Cells were treated with 0, 12.5, 50, 200, 400 or 800 μM Coenzyme Q10 for 24 hours. Cell populations and viability was determined by flow cytometry using combinational staining of surface markers using Annexin V/7 AAD stains. Cells from 5 healthy donors were evaluated. Total, cytotoxic and helper T cell viability after treatment with increasing Coenzyme Q10 concentrations show T cell viability increased in response to Coenzyme Q10. FIG. 17A. […]"}, "IL-10": {"tested_on": "IL-10", "test": "Cytokine ELISA in PBMC supernatants", "type": "cell-based, human", "conditions": "during PHA activation, various concentrations of Coenzyme Q10", "method": "(§2) Cytokines were measured in the PBMCs according to the manufacturer's protocol for R&D Quantikine ELISA kits (R&D Systems, Inc., Minneapolis, Minn.) specific to each cytokine. PBMCs were collected from 3 donors (D003F, D004F and D005F)."}, "IL-2": {"tested_on": "IL-2", "test": "Cytokine ELISA in PBMC supernatants", "type": "cell-based, human", "conditions": "during PHA activation, various concentrations of Coenzyme Q10", "method": "as §2"}, "interferon-γ (IFN-γ)": {"tested_on": "interferon-γ (IFN-γ)", "test": "Cytokine ELISA in PBMC supernatants", "type": "cell-based, human", "conditions": "during PHA activation, various concentrations of Coenzyme Q10", "method": "as §2"}, "murine Balb/c PBMCs": {"tested_on": "murine Balb/c PBMCs", "test": "Frequency of PD-1 expressing cells within murine PBMCs", "type": "cell-based, mouse", "conditions": "0-800 μM, 24 hours, dose dependent, unstimulated and PHA-stimulated cells", "method": "The frequency of PD-1 expressing cells within PHA-stimulated or unstimulated murine Balb/c PBMCs was also evaluated. Cells were concurrently treated with Coenzyme Q10 (0, 12.5, 50, 200, 400 or 800 μM) for 24 hours and evaluated by flow cytometry using surface marker antibody for αCD3 and viability stains Annexin V/7AAD. Viable cells were identified by plotting Annexin V vs. 7 AAD, and gated viable cells were subjected to CD3 vs. PD-1 staining. Two experiments using two different pools of Balb/c PBMCs and one experiment using C57B1/6 PBMCs were conducted."}},
  "data": [
    {"smiles": "COC1=C(OC)C(=O)C(C/C=C(\\C)CC/C=C(\\C)CC/C=C(\\C)CC/C=C(\\C)CC/C=C(\\C)CC/C=C(\\C)CC/C=C(\\C)CC/C=C(\\C)CC/C=C(\\C)CCC=C(C)C)=C(C)C1=O", "note": "[Coenzyme Q10]", "values": [
      {"measurement": "Expression of CD8B in buffy coat", "setting": "[1]", "value": "downregulated"},
      {"measurement": "Expression of CD247 in buffy coat", "setting": "[1]", "value": "downregulated"},
      {"measurement": "Expression of CFL1 in buffy coat", "setting": "[1]", "value": "upregulated"},
      {"measurement": "Expression of S100A8 in buffy coat", "setting": "[1]", "value": "upregulated"},
      {"measurement": "Amount of PD-L1 protein on the cell surface", "setting": "[2]; MDA-MB231, 3 hours after treatment", "value": "significantly increased"},
      {"measurement": "Amount of PD-L1 protein on the cell surface, treated vs untreated", "setting": "[2]; MDA-MB231, 6 hours after treatment", "value": "no significant difference"},
      {"measurement": "Amount of PD-L1 protein on the cell surface", "setting": "[2]; MDA-MB231, 72 hours after treatment", "value": "significantly increase"},
      {"measurement": "Percentage of cells having PD-L1 protein on their surface", "setting": "[2]; MDA-MB231, 72 hours after treatment, 100 μM or IC50 of Coenzyme Q10", "value": "did not significantly change"},
      {"measurement": "Cell populations, treated vs untreated cells", "setting": "[2]; MDA-MB231, flow cytometry", "value": "no changes"},
      {"measurement": "Frequency of cytotoxic T cells", "setting": "human PBMCs (T cells) [3]", "value": "increased"},
      {"measurement": "Frequency of helper T cells", "setting": "human PBMCs (T cells) [3]", "value": "increased"},
      {"measurement": "Frequency of total T cells", "setting": "human PBMCs (T cells) [3]", "value": "increased"},
      {"measurement": "T cell viability (total, cytotoxic and helper T cells)", "setting": "human PBMCs (T cells) [4]", "value": "increased"},
      {"measurement": "IL-10 level in supernatant", "setting": "IL-10", "value": "dose-dependently decreased"},
      {"measurement": "IL-2 level in supernatant", "setting": "IL-2", "value": "increased"},
      {"measurement": "IFN-γ level in supernatant", "setting": "interferon-γ (IFN-γ)", "value": "increased"},
      {"measurement": "Frequency of PD-1 negative CD3 positive T cells", "setting": "murine Balb/c PBMCs", "value": "increased"}
    ]}
  ]
}
